US4751302A, “Indazole derivatives” (priority 1982, dated 1988)
Several values for one entry are separate records, joined by “and”; a condition that tells them apart may be missing. Equal entries are not always repeated. Entries after “also recorded” stand apart in the source; their conditions may differ. Where two headings read alike, the source gives them in different places.

Experiments:
[1] = Superoxide capture by ESR and UV spectra (potassium superoxide / dicyclohexyl-18-crown-6 in acetonitrile); format: biochemical; details: for catch of superoxide / one electron acceptance: ESR and UV
Procedure: As described in Yoshihiko Oyagi, "Superoxide and Medical Science", pp. 120-144, published by Kyoritsu Shuppan, a superoxide is considered to be one of the factors which cause the inflammation.
According to the description on Transactions of the Faraday Society, 59, 2016-2026 (1963), the UV spectrum of a phenoxy radical is observed at 380-430 nm. When the UV spectrum of a mixture of the 3-amino-5-hydroxyindazole and dicyclohexyl-18-crown-6 is measured in acetonitrile, λmax is observed at 306 nm. If potassium superoxide is added to the mixture, λmax is observed at 403 nm and 426 nm. On the other hand, no absorptions are observed at 350-450 nm when the UV spectra of potassium superoxide and 3-amino-5-hydroxyindazole are measured respectively in the presence of both dicyclohexyl-18-crown-6 and acetonitrile.

in vivo = details: mouse, ip, intraperitoneal, hydrochloride, male ddy mice
[2] = system: Carrageenin edema in rat's paw; assay: Carrageenin Edema Test in Rat's Paw (anti-inflammatory activity, Table 1); format: in vivo; details: 100 mg/kg oral, hydrochloride, rat
Procedure: An anti-inflammatory activity was measured by orally administering 100 mg/kg of a hydrochloride of the indazole derivative of this invention as set forth in Table 1 to an animal in accordance with the standard method of Carrageenin Edema Test in Rat's Paw described in C. A. Winter et al., Proc. Soc. Exp. Biol. Med., 111, 544 (1962).

gastric ulcer = format: in vivo, Male donryu rats
Procedure: The test compound was suspended in 1% HCO-60 (trade name for polyoxyethylene hydrogenated castor oil; a product of Nikko Chemical Co., Ltd., Japan) at the concentration of 10 mg/ml. Male donryu rats weighing 150-160 g were orally administered 100 mg/kg of the test compound. The occurrence of gastric ulcer was examined 24 hours after the administration.
It is well known that the single use of acidic non-steroidal anti-inflammatory drugs causes a side effect in digestive tract ulcers such as gastric ulcer. The inventors found, however, that the side effect could be suppressed if the acidic non-steroidal anti-inflammatory drugs were used in combination with the indazole derivatives or pharmaceutically acceptable salts thereof of this invention. For example, gastric ulcer was caused by a single administration of 10 mg/kg of indomethacin in an ulcer index of 10.2 mm, and in an occurrence frequency of 6/6 (Ulcer generation animal number/Total animal number).

acetic acid-writing = assay: Analgesic activity, acetic acid-writing test (Table 3); format: in vivo, animal (rat); standard mouse acetic acid-writing test
Histamine inducing edema = assay: Anti-edema test, histamine inducing edema (Table 2); format: in vivo, rat; details: after 30 minutes
Procedure: (§1) […] A. Winter et al., NonSteroidal Anti-inflammatory Drugs. As an edema inducing substance, bradykinin, histamine and serotonin were employed. […] Bradykinin inducing edema inhibition and histamine inducing edema inhibition were measured after 30 minutes of the administration, and serotonin inducing edema inhibition was measured after 3 hours of the administration.

[3] = system: Bradykinin inducing edema; assay: Anti-edema test, bradykinin inducing edema (Table 2); format: in vivo, rat; details: after 30 minutes
Procedure: as §1

Serotonin inducing edema = assay: Anti-edema test, serotonin inducing edema (Table 2); format: in vivo, rat; details: after 3 hours
Procedure: as §1

[4] = potassium superoxide, dicyclohexyl-18-crown-6, acetonitrile
[5] = 100 mg/kg Compound (126) together with 10 mg/kg indomethacin

SMILES	LD50 (in vivo)	inhibition in vivo at 100 mg/kg [2]	also measured
Nc1n[nH]c2ccc(O)cc12 [3-amino-5-hydroxyindazole, 3-Amino-5-hydroxyindazole]			ESR signals on addition to superoxide mixture (phenoxy radical) [1, 4]: six superfine signals are observed; catch of superoxide / one electron acceptance [1, 4]: a phenoxy radical is produced; UV λmax after adding potassium superoxide (phenoxy radical) ([1]; with potassium superoxide and dicyclohexyl-18-crown-6 in acetonitrile): 403 nm and 426 nm
CCN(CC)CCCn1nc(NCCCN2CCCCC2)c2cc(O)ccc21 [(126), 1-(3-Diethylaminopropyl)-3-(3-piperidinopropylamino)-5-hydroxyindazole]	310 mg/kg	28%	occurrence frequency of ulcer (gastric ulcer; [5]): the occurrence frequency was not changed; ulcer index (gastric ulcer; [5]): 5.8 mm; occurrence of gastric ulcer (gastric ulcer; rat, in vivo): gastric ulcer did not occur
CC1CCCCN1CCCNc1nn(CCCN2CCCC2)c2ccc(O)cc12 (stereo not drawn) [(143), 1-(3-Pyrrolidinopropyl)-3-[3-(2-methylpiperidino)propylamino]-5-hydroxyindazole]	291 mg/kg	30%	
CN1CCN(CCCNc2nn(CCCN3CCCC3)c3ccc(O)cc23)CC1 [(144), 1-(3-Pyrrolidinopropyl)-3-[3-(4-methylpiperazino)propylamino]-5-hydroxyindazole]	281 mg/kg	26%	
CCN(CC)CCCNc1nn(CCCN2CCOCC2)c2ccc(O)cc12 [(145), 1-(3-Morpholinopropyl)-3-(3-diethylaminopropylamino)-5-hydroxyindazole]	211 mg/kg	30%	
CC1CCCC(C)N1CCCNc1nn(CCCN2CCOCC2)c2ccc(O)cc12 (stereo not drawn) [(146), 1-(3-Morpholinopropyl)-3-[3-(2,6-dimethylpiperidino)propylamino]-5-hydroxyindazole]	198 mg/kg	32%	
Oc1ccc2c(c1)c(NCCCN1CCC(Cl)CC1)nn2CCCN1CCOCC1 [(147), 1-(3-Morpholinopropyl)-3-[3-(4-chloropiperidino)propylamino]-5-hydroxyindazole]	181 mg/kg	29%	
Oc1ccc2c(c1)c(NCCCN1CCC(O)CC1)nn2CCCN1CCOCC1 [(148), 1-(3-Morpholinopropyl)-3-[3-(4-hydroxypiperidino)propylamino]-5-hydroxyindazole]	245 mg/kg	30%	
Nc1nn(CCCN2CCOCC2)c2ccccc12 [(149), 1-(3-Morpholinopropyl)-3-aminoindazole]	261 mg/kg	50%	
CC(CCn1nc(N)c2ccccc21)N1CCOCC1 (stereo not drawn) [(150), 1-(3-Morpholinobutyl)-3-aminoindazole]	270 mg/kg	39%	
Nc1nn(CCN2CCOCC2)c2ccccc12 [(151), 1-(2-Morpholinoethyl)-3-aminoindazole]	290 mg/kg	48%	
c1ccc2c(NCCCN3CCOCC3)n[nH]c2c1 [(152), 3-(3-Morpholinopropylamino)indazole]		51%	Inhibition (acetic acid-writing, analgesic activity) (acetic acid-writing; 100 mg/kg oral): 57%; Histamine inducing edema Inhibition (Histamine inducing edema; 100 mg/kg oral): 20.7%; Bradykinin inducing edema Inhibition ([3]; 100 mg/kg oral): 37%; Serotonin inducing edema Inhibition (Serotonin inducing edema; 100 mg/kg oral): 42.9%
CC(CCNc1n[nH]c2ccccc12)N1CCOCC1 (stereo not drawn) [(153), 3-(3-Morpholinobutylamino)indazole]	331 mg/kg	51%	
c1ccc2c(NCCN3CCOCC3)n[nH]c2c1 [(154), 3-(2-Morpholinoethylamino)indazole]	351 mg/kg	50%	
CCN(CC)CCCNc1nn(CCCN2CCOCC2)c2ccccc12 [(155), 1-(3-Morpholinopropyl)-3-(3-diethylaminopropylamino)indazole]	291 mg/kg	30%	
CC1CCCC(C)N1CCCNc1nn(CCCN2CCOCC2)c2ccccc12 (stereo not drawn) [(156), 1-(3-Morpholinopropyl)-3-[3-(2,6-dimethylpiperidino)propylamino]indazole]	301 mg/kg	32%	

SMILES	LD50 (in vivo)	inhibition in vivo at 100 mg/kg [2]	also measured
ClC1CCN(CCCNc2nn(CCCN3CCOCC3)c3ccccc23)CC1 [(157), 1-(3-Morpholinopropyl)-3-[3-(4-chloropiperidino)propylamino]indazole]	251 mg/kg	29%	
OC1CCN(CCCNc2nn(CCCN3CCOCC3)c3ccccc23)CC1 [(158), 1-(3-Morpholinopropyl)-3-[3-(4-hydroxypiperidino)propylamino]indazole]	288 mg/kg	30%	
CCCCN(CCCC)CCCn1nc(NCCCN2CCOCC2)c2ccccc21 [(159), 1-(3-Di-n-butylaminopropyl)-3-(3-morpholinopropylamino)indazole]	191 mg/kg	41%	
c1ccc2c(c1)c(NCCCN1CCOCC1)nn2CCCN1CCCCC1 [(160), 1-(3-Piperidinopropyl)-3-(3-morpholinopropylamino)indazole]	244 mg/kg	39%	
Nc1n[nH]c2cccc(O)c12 [(161), 3-Amino-4-hydroxyindazole]	211 mg/kg	41%	
Nc1n[nH]c2ccc(O)cc12 [(162), 3-Amino-5-hydroxyindazole]	243 mg/kg	45%	catch of superoxide / one electron acceptance [1, 4]: can catch the superoxide; also recorded: accepts one electron from the superoxide
Nc1n[nH]c2cc(O)ccc12 [(163), 3-Amino-6-hydroxyindazole]	252 mg/kg	43%	
Nc1n[nH]c2c(O)cccc12 [(164), 3-Amino-7-hydroxyindazole]	231 mg/kg	42%	
Nc1n[nH]c2ccc(I)cc12 [(165), 3-Amino-5-iodoindazole]	242 mg/kg	55%	
Nc1n[nH]c2c(I)cccc12 [(166), 3-Amino-7-iodoindazole]	198 mg/kg	50%	
Nc1cc(N)c2[nH]nc(N)c2c1 [(167), 3,5,7-Triaminoindazole]	171 mg/kg	85%	
COc1ccc2c(c1)c(CC(=O)O)c(C)n2C(=O)c1ccc(Cl)cc1 [Compound C-4, Indomethacin]			Inhibition (acetic acid-writing, analgesic activity) (acetic acid-writing; Dose: 20 mg/kg, oral): 50%; Histamine inducing edema Inhibition (Histamine inducing edema; Dose: 10 mg/kg, oral): 0%; Bradykinin inducing edema Inhibition ([3]; Dose: 10 mg/kg, oral): 0.4%; Serotonin inducing edema Inhibition (Serotonin inducing edema; Dose: 10 mg/kg, oral): 21.4%
CCCCC1C(=O)N(c2ccccc2)N(c2ccccc2)C1=O [Compound C-5, 3,5-dioxo-1,2-diphenyl-4-n-butylpyrazolidine]			Inhibition (acetic acid-writing, analgesic activity) (acetic acid-writing; 100 mg/kg oral): 9%; Histamine inducing edema Inhibition (Histamine inducing edema; 100 mg/kg oral): 0%; Bradykinin inducing edema Inhibition ([3]; 100 mg/kg oral): 2.9%; Serotonin inducing edema Inhibition (Serotonin inducing edema; 100 mg/kg oral): 2.8%
CC(C(=O)O)c1cccc(C(=O)c2ccccc2)c1 (stereo not drawn) [Compound C-6, 3-benzoylhydratropic acid]			Histamine inducing edema Inhibition (Histamine inducing edema; Dose: 10 mg/kg, oral): 2.9%; Bradykinin inducing edema Inhibition ([3]; Dose: 10 mg/kg, oral): 1.6%; Serotonin inducing edema Inhibition (Serotonin inducing edema; Dose: 10 mg/kg, oral): 5.2%
COc1ccc2c(c1)c(CC(=O)O)c(C)n2C(=O)c1ccc(Cl)cc1 [indomethacin, 1-(p-chlorobenzoyl)-5-methoxy-2-methyl-indole-3-acetic acid, reference compound]			occurrence frequency (Ulcer generation animal number/Total animal number) (gastric ulcer; rat, in vivo, 10 mg/kg): 6/6; ulcer index (gastric ulcer; rat, in vivo, 10 mg/kg): 10.2 mm
